Data taken from PubChem BioAssay (NCI).
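Compound exposure: 48 hours, 5 concentrations, 96-well plates. Abbreviation: GI50, concentration required for 50% inhibition of growth. TGI: concentration producing complete growth inhibition.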

What was measured:
Experiment in all cases: NCI-60 cell line screen, 48 h
786-0 renal = system: 786-0 renal
A498 renal = system: A498 renal
A549 NSCLC = system: A549 NSCLC
ACHN renal = system: ACHN renal
BT-549 breast = system: BT-549 breast
CAKI-1 renal = system: CAKI-1 renal
CCRF-CEM leukemia = system: CCRF-CEM leukemia
COLO 205 colon = system: COLO 205 colon
DU-145 prostate = system: DU-145 prostate
EKVX NSCLC = system: EKVX NSCLC
HCC-2998 colon = system: HCC-2998 colon
HCT-116 colon = system: HCT-116 colon
HCT-15 colon = system: HCT-15 colon
HL-60(TB) leukemia = system: HL-60(TB) leukemia
HOP-62 NSCLC = system: HOP-62 NSCLC
HOP-92 NSCLC = system: HOP-92 NSCLC
HS 578T breast = system: HS 578T breast
HT29 colon = system: HT29 colon
IGROV1 ovarian = system: IGROV1 ovarian
K-562 leukemia = system: K-562 leukemia
KM12 colon = system: KM12 colon
LOX IMVI melanoma = system: LOX IMVI melanoma
M14 melanoma = system: M14 melanoma
MALME-3M melanoma = system: MALME-3M melanoma
MCF7 breast = system: MCF7 breast
MDA-MB-231 breast = system: MDA-MB-231 breast
MDA-MB-435 = system: MDA-MB-435
MDA-MB-468 breast = system: MDA-MB-468 breast
MOLT-4 leukemia = system: MOLT-4 leukemia
NCI-H226 lung = system: NCI-H226 lung
NCI-H23 lung = system: NCI-H23 lung
NCI-H460 lung = system: NCI-H460 lung
NCI-H522 lung = system: NCI-H522 lung
OVCAR-3 ovarian = system: OVCAR-3 ovarian
OVCAR-4 ovarian = system: OVCAR-4 ovarian
OVCAR-5 ovarian = system: OVCAR-5 ovarian
OVCAR-8 ovarian = system: OVCAR-8 ovarian
PC-3 prostate = system: PC-3 prostate
RPMI-8226 leukemia = system: RPMI-8226 leukemia
RXF 393 renal = system: RXF 393 renal
SF-268 CNS = system: SF-268 CNS
SF-295 CNS = system: SF-295 CNS
SF-539 CNS = system: SF-539 CNS
SK-MEL-28 melanoma = system: SK-MEL-28 melanoma
SK-MEL-5 melanoma = system: SK-MEL-5 melanoma
SK-OV-3 ovarian = system: SK-OV-3 ovarian
SN12C renal = system: SN12C renal
SNB-19 CNS = system: SNB-19 CNS
SNB-75 CNS = system: SNB-75 CNS
SR leukemia = system: SR leukemia
SW-620 colon = system: SW-620 colon
T-47D breast = system: T-47D breast
TK-10 renal = system: TK-10 renal
U251 CNS = system: U251 CNS
UACC-257 melanoma = system: UACC-257 melanoma
UACC-62 melanoma = system: UACC-62 melanoma
UO-31 renal = system: UO-31 renal

SMILES: Cc1ccc(NC(=O)[C@]23CCC(C)(C)CC2C2=CCC4[C@@]5(C)C[C@@H](O)[C@H](O)[C@@](C)(CO)C5CC[C@@]4(C)[C@]2(C)CC3)cc1 (some centres undefined)
- GI50 (786-0 renal): 12.8 µM
- TGI (786-0 renal): 26.4 µM
- GI50 (A498 renal): 14.1 µM
- TGI (A498 renal): 27.4 µM
- GI50 (A549 NSCLC): 12.9 µM
- TGI (A549 NSCLC): > 100 µM
- GI50 (ACHN renal): 10.4 µM
- TGI (ACHN renal): 22.1 µM
- GI50 (BT-549 breast): 12.4 µM
- TGI (BT-549 breast): 25.4 µM
- GI50 (CAKI-1 renal): 5.1 µM
- TGI (CAKI-1 renal): 20.4 µM
- GI50 (CCRF-CEM leukemia): 11.1 µM
- TGI (CCRF-CEM leukemia): 38.9 µM
- GI50 (COLO 205 colon): 12.1 µM
- TGI (COLO 205 colon): 27.5 µM
- GI50 (DU-145 prostate): 15.2 µM
- TGI (DU-145 prostate): 32.6 µM
- GI50 (EKVX NSCLC): 9.25 µM
- TGI (EKVX NSCLC): 23.9 µM
- GI50 (HCC-2998 colon): 6.91 µM
- TGI (HCC-2998 colon): 21 µM
- GI50 (HCT-116 colon): 7.24 µM
- TGI (HCT-116 colon): 20 µM
- GI50 (HCT-15 colon): 6.9 µM
- TGI (HCT-15 colon): 19.9 µM
- GI50 (HL-60(TB) leukemia): 5.44 µM
- TGI (HL-60(TB) leukemia): 36.5 µM
- GI50 (HOP-62 NSCLC): 14.3 µM
- TGI (HOP-62 NSCLC): 29.1 µM
- GI50 (HOP-92 NSCLC): 8.43 µM
- TGI (HOP-92 NSCLC): 23.1 µM
- GI50 (HS 578T breast): 12.4 µM
- TGI (HS 578T breast): 48.6 µM
- GI50 (HT29 colon): 7.44 µM
- TGI (HT29 colon): 20.1 µM
- GI50 (IGROV1 ovarian): 11.1 µM
- TGI (IGROV1 ovarian): 23.8 µM
- GI50 (K-562 leukemia): 12.1 µM
- TGI (K-562 leukemia): 87.6 µM
- GI50 (KM12 colon): 12.8 µM
- TGI (KM12 colon): 28.2 µM
- GI50 (LOX IMVI melanoma): 5.27 µM
- TGI (LOX IMVI melanoma): 19.1 µM
- GI50 (M14 melanoma): 12.4 µM
- TGI (M14 melanoma): 25.2 µM
- GI50 (MALME-3M melanoma): 12.1 µM
- TGI (MALME-3M melanoma): 25.1 µM
- GI50 (MCF7 breast): 4.12 µM
- TGI (MCF7 breast): 15.5 µM
- GI50 (MDA-MB-231 breast): 12.2 µM
- TGI (MDA-MB-231 breast): 26.1 µM
- GI50 (MDA-MB-435): 11.5 µM
- TGI (MDA-MB-435): 23.7 µM
- GI50 (MDA-MB-468 breast): 4.52 µM
- TGI (MDA-MB-468 breast): 18.1 µM
- GI50 (MOLT-4 leukemia): 6.88 µM
- TGI (MOLT-4 leukemia): 50.7 µM
- GI50 (NCI-H226 lung): 11 µM
- TGI (NCI-H226 lung): 23.8 µM
- GI50 (NCI-H23 lung): 12.7 µM
- TGI (NCI-H23 lung): 26.8 µM
- GI50 (NCI-H460 lung): 10.5 µM
- TGI (NCI-H460 lung): 23.1 µM
- GI50 (NCI-H522 lung): 12.9 µM
- TGI (NCI-H522 lung): 26.6 µM
- GI50 (OVCAR-3 ovarian): 13.5 µM
- TGI (OVCAR-3 ovarian): 27.3 µM
- GI50 (OVCAR-4 ovarian): 7.81 µM
- TGI (OVCAR-4 ovarian): 23.3 µM
- GI50 (OVCAR-5 ovarian): 12.8 µM
- TGI (OVCAR-5 ovarian): 25.7 µM
- GI50 (OVCAR-8 ovarian): 14.2 µM
- TGI (OVCAR-8 ovarian): 35.5 µM
- GI50 (PC-3 prostate): 5.46 µM
- TGI (PC-3 prostate): 21.5 µM
- GI50 (RPMI-8226 leukemia): 4.79 µM
- TGI (RPMI-8226 leukemia): 25.8 µM
- GI50 (RXF 393 renal): 2.9 µM
- TGI (RXF 393 renal): 11.6 µM
- GI50 (SF-268 CNS): 10.2 µM
- TGI (SF-268 CNS): 32.2 µM
- GI50 (SF-295 CNS): 8.28 µM
- TGI (SF-295 CNS): 21.4 µM
- GI50 (SF-539 CNS): 12.7 µM
- TGI (SF-539 CNS): 25.6 µM
- GI50 (SK-MEL-28 melanoma): 13 µM
- TGI (SK-MEL-28 melanoma): 26 µM
- GI50 (SK-MEL-5 melanoma): 6.45 µM
- TGI (SK-MEL-5 melanoma): 19.3 µM
- GI50 (SK-OV-3 ovarian): 13.9 µM
- TGI (SK-OV-3 ovarian): 34 µM
- GI50 (SN12C renal): 10.9 µM
- TGI (SN12C renal): 23.1 µM
- GI50 (SNB-19 CNS): 16.5 µM
- TGI (SNB-19 CNS): 43.4 µM
- GI50 (SNB-75 CNS): 1.88 µM
- TGI (SNB-75 CNS): 31.4 µM
- GI50 (SR leukemia): 5.58 µM
- TGI (SR leukemia): > 100 µM
- GI50 (SW-620 colon): 12.5 µM
- TGI (SW-620 colon): 27.5 µM
- GI50 (T-47D breast): 6.94 µM
- TGI (T-47D breast): 20.6 µM
- GI50 (TK-10 renal): 16.3 µM
- TGI (TK-10 renal): 32 µM
- GI50 (U251 CNS): 12.8 µM
- TGI (U251 CNS): 25.5 µM
- GI50 (UACC-257 melanoma): 12.9 µM
- TGI (UACC-257 melanoma): 27.5 µM
- GI50 (UACC-62 melanoma): 6.8 µM
- TGI (UACC-62 melanoma): 20.6 µM
- GI50 (UO-31 renal): 3.54 µM
- TGI (UO-31 renal): 17 µM
